Earlier results as cited in patent publication US8114422B2, “Methods and compositions for reducing skin damage” (The General Hospital Corporation, priority 2005, dated 2012).
Like-named read-outs stand apart in the source and are kept apart here.

How the values were obtained:
[1] = target: PDGF receptor kinase; settings: read-out: IC50 PDGF receptor (tyrosine) kinase
[2] = test system: mitochondrial membrane potential

Row | Compound | IC50 [1] | depolarization of mitochondrial membrane potential ([2]; treatment of cells at 10 μM) | depolarization of mitochondrial membrane potential ([2]; treatment of cells at 100 nm)
1 | N#CC(=Cc1ccc2[nH]ccc2c1)C(N)=C(C#N)C#N [AG-370] | 20 µM | – | –
2 | COc1cc2ncc(-c3ccccc3)nc2cc1OC [AG-1296, 6,7-Dimethoxy-3-phenylquinoxaline] | 1 µM | – | –
3 | N#CC(C#N)=NNc1ccc(OC(F)(F)F)cc1 [FCCP, Carbonylcyanide-4-(trifluoromethoxy)-phenylhydrazone] | – | complete (10 μM) | partial (100 nm) or
